Data as given in patent publication US8969375B2, “CDK9 kinase inhibitors” (AbbVie Inc., priority 2013, dated 2015).

What was measured:
CDK9/Cyclin T1 = biological target: T1, CDK9/Cyclin T1 (Homo sapiens, UniProt P50750); assay: CDK9 enzyme activity, LANCE ULight TR-FRET kinase assay; format: biochemical; details: 1000 μM ATP, 4 nM CDK9/Cyclin T1, 30 minutes
T1 construct: purchased Carna Biosciences 04-110
Experimental: CDK9 enzyme activities were measured using LANCE ULight TR-FRET kinase assay reagents (PerkinElmer, Waltham, Mass.). Compounds were directly added in 100% DMSO to white low volume assay plates (Perkin Elmer Proxiplate 6008289) using a Labcyte Echo acoustic dispenser. Assay reagents in serine/threonine kinase assay buffer containing 20 mM HEPES, 10 mM MgCl2, 100 mM Na3VO4, and 0.0075% Triton X-100. were added for final reaction mixture concentrations of 1000 μM ATP, 100 nM U-light MBP peptide (Perkin Elmer TRF0109M) and reaction initiated with 4 nM CDK9/Cyclin T1 (Carna Biosciences 04-110). The kinase reaction was carried out for 30 minutes before addition of stopping buffer to a final of 20 mM EDTA and 0.5 nM of LANCE Ultra Europium anti-phospho-MBP antibody (PerkinElmer TRF0201M) in LANCE detection buffer (PerkinElmer CR97-100). The reaction was equilibrated for 1 hour and the signal read in the Perkin Elmer Envision in TR-FRET mode (excitation at 320 nm and emission at 615/665 nm).

H929 cells = assay: Cell viability assay (Cell TiterGlo), H929 cells; format: cell-based, human; details: Homo sapiens, NCI-H929, 24 hours
Experimental: Cell viability assays were performed using A431 or H929 cells. A431 cells were seeded in 96-well plates at 10,000 cells/well, and after overnight incubation, treated with compounds at 2-times the final concentration to result in a dose response of 3-fold dilutions from 10 μM to 0.0005 μM (50 μL/well, 0.1% final DMSO concentration). H929 cells were seeded in 96-well plates at 10,000 cells/well and treated immediately with compounds as described above. After 24 hours at 37° C., cell viability was measured using Cell TiterGlo reagent (Promega) with a luminescence reader. Alternately, cell viability assays were performed in 384-well format. A431 cells were seeded in 384-well plates at 2500 cells/well and, after overnight incubation, treated with compounds in a dose response of 3-fold dilutions from 10 μM to 0.0005 μM ([…], 0.1% final DMSO concentration). For the H929 viability assay, […] of the compounds was dispensed into 384-well plates in a dose response as described above and cells were immediately seeded in 384-well plates at 2500 cells/well. After 24 hours at […], cell viability was measured using Cell TiterGlo reagent (Promega) with a luminescence reader.

T1 sequence (P50750 whole entry): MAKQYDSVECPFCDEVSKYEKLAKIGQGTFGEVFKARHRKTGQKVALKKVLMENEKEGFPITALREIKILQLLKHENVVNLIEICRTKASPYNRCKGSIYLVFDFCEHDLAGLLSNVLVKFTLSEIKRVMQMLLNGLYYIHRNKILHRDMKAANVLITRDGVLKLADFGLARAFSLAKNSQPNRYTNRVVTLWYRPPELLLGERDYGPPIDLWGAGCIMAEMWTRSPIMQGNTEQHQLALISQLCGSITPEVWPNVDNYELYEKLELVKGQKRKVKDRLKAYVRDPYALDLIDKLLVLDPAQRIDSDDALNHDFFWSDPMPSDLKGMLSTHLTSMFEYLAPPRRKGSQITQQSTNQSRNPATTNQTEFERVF
T1 sequence (O60563 whole entry partner): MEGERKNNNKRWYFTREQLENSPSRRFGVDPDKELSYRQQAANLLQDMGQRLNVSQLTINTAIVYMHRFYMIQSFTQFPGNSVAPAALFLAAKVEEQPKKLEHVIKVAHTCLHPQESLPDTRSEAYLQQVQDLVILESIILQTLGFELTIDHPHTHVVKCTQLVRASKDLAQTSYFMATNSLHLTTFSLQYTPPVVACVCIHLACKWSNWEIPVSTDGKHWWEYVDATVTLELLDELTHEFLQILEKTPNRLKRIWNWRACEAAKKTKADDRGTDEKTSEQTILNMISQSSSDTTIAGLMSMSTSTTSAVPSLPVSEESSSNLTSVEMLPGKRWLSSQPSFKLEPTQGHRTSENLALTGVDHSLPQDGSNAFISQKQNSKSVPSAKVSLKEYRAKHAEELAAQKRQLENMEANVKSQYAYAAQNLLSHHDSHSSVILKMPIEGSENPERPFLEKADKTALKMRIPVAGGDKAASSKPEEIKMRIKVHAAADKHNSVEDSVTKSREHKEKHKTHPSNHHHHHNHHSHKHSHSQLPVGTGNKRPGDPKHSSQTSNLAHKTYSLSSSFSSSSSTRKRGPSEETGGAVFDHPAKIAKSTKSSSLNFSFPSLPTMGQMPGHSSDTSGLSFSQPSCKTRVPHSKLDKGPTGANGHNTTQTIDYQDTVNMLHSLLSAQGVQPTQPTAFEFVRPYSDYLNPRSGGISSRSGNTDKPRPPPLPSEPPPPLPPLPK

SMILES | IC50 (CDK9/Cyclin T1) | EC50 (H929 cells)
CS(=O)(=O)N1CCC(c2cc3c(-c4ccc5ncn(CC6CCOCC6)c5c4)ccnc3[nH]2)CC1 [Example 6, 6-{2-[1-(methylsulfonyl)piperidin-4-yl]-1H-pyrrolo[2,3-b]pyridin-4-yl}-1-(tetrahydro-2H-pyran-4-ylmethyl)-1H-benzimidazole] | 38 nM | 130 nM
c1cc(-c2ccc3ncn(CC4CCOCC4)c3n2)c2cc(C3CCNCC3)[nH]c2n1 [Example 7, 5-[2-(piperidin-4-yl)-1H-pyrrolo[2,3-b]pyridin-4-yl]-3-(tetrahydro-2H-pyran-4-ylmethyl)-3H-imidazo[4,5-b]pyridine] | 69 nM | 500 nM
CS(=O)(=O)N1CCC(c2cc3c(-c4ccc5c(C#N)cn(Cc6cccc(F)c6)c5c4)ccnc3[nH]2)CC1 [Example 11, 1-(3-fluorobenzyl)-6-{2-[1-(methylsulfonyl)piperidin-4-yl]-1H-pyrrolo[2,3-b]pyridin-4-yl}-1H-indole-3-carbonitrile] | 110 nM | 178 nM
CNC(=O)N1CCC(c2cc3c(-c4ccc5ncn(Cc6cncc(F)c6)c5c4)ccnc3[nH]2)CC1 [Example 16, 4-(4-{1-[(5-fluoropyridin-3-yl)methyl]-1H-benzimidazol-6-yl}-1H-pyrrolo[2,3-b]pyridin-2-yl)-N-methylpiperidine-1-carboxamide] | 94 nM | 180 nM
OCC(O)CN1CCC(c2cc3c(-c4ccc5ncn(Cc6cncc(F)c6)c5c4)ccnc3[nH]2)CC1 (stereo not shown) [Example 17, 3-[4-(4-{1-[(5-fluoropyridin-3-yl)methyl]-1H-benzimidazol-6-yl}-1H-pyrrolo[2,3-b]pyridin-2-yl)piperidin-1-yl]propane-1,2-diol] | 66 nM | 120 nM
Fc1cc2ncn(CC3CCOCC3)c2cc1-c1ccnc2[nH]c(C3CCNCC3)cc12 [Example 18, 5-fluoro-6-[2-(piperidin-4-yl)-1H-pyrrolo[2,3-b]pyridin-4-yl]-1-(tetrahydro-2H-pyran-4-ylmethyl)-1H-benzimidazole] | 120 nM | 858 nM
OCC(O)CN1CCC(c2cc3c(-c4cc5c(cc4F)ncn5CC4CCOCC4)ccnc3[nH]2)CC1 (stereo not shown) [Example 19, 3-(4-{4-[5-fluoro-1-(tetrahydro-2H-pyran-4-ylmethyl)-1H-benzimidazol-6-yl}-1H-pyrrolo[2,3-b]pyridin-2-yl]piperidin-1-yl)propane-1,2-diol] | 97 nM | 1110 nM
CNC(=O)N1CCC(c2cc3c(-c4cc5c(cc4F)ncn5CC4CCOCC4)ccnc3[nH]2)CC1 [Example 20, 4-{4-[5-fluoro-1-(tetrahydro-2H-pyran-4-ylmethyl)-1H-benzimidazol-6-yl]-1H-pyrrolo[2,3-b]pyridin-2-yl}-N-methylpiperidine-1-carboxamide] | 160 nM | 1970 nM
O=C(CO)N1CCC(c2cc3c(-c4cc5c(cc4F)ncn5CC4CCOCC4)ccnc3[nH]2)CC1 [Example 21, 1-(4-{4-[5-fluoro-1-(tetrahydro-2H-pyran-4-ylmethyl)-1H-benzimidazol-6-yl}-1H-pyrrolo[2,3-b]pyridin-2-yl]piperidin-1-yl)-2-hydroxyethanone] | 100 nM | 1850 nM
N#Cc1cn(Cc2ccccc2)c2cc(-c3ncnc4[nH]c(C5=CCNCC5)cc34)ccc12 [Example 22, 1-benzyl-6-[6-(1,2,3,6-tetrahydropyridin-4-yl)-7H-pyrrolo[2,3-d]pyrimidin-4-yl]-1H-indole-3-carbonitrile] | 16 nM | 100 nM
CS(=O)(=O)N1CCC(c2cc3c(-c4cc5c(cc4F)ncn5CC4CCOCC4)ccnc3[nH]2)CC1 [Example 23, 5-fluoro-6-{2-[1-(methylsulfonyl)piperidin-4-yl]-1H-pyrrolo[2,3-b]pyridin-4-yl}-1-(tetrahydro-2H-pyran-4-ylmethyl)-1H-benzimidazole] | 55 nM | 550 nM
Clc1cc2ncn(CC3CCOCC3)c2cc1-c1ccnc2[nH]c(C3CCNCC3)cc12 [Example 27, 5-chloro-6-[2-(piperidin-4-yl)-1H-pyrrolo[2,3-b]pyridin-4-yl]-1-(tetrahydro-2H-pyran-4-ylmethyl)-1H-benzimidazole] | 53 nM | 7000 nM
N#Cc1cn(CC2CCOCC2)c2cc(-c3ccnc4[nH]c(C5CCNCC5)cc34)cnc12 [Example 28, 6-[2-(piperidin-4-yl)-1H-pyrrolo[2,3-b]pyridin-4-yl]-1-(tetrahydro-2H-pyran-4-ylmethyl)-1H-pyrrolo[3,2-b]pyridine-3-carbonitrile] | 180 nM | > 10000 nM
c1cc(-c2cnc3ccn(CC4CCOCC4)c3c2)c2cc(C3CCNCC3)[nH]c2n1 [Example 30, 6-{2-(piperidin-4-yl)-1H-pyrrolo[2,3-b]pyridin-4-yl}-1-(tetrahydro-2H-pyran-4-ylmethyl)-1H-pyrrolo[3,2-b]pyridine] | 85 nM | 6300 nM
N#Cc1cn(Cc2ccccc2)c2cc(-c3ncnc4[nH]c(C5=CCN(CC(O)CO)CC5)cc34)ccc12 (stereo not shown) [Example 31, 1-benzyl-6-{6-[1-(2,3-dihydroxypropyl)-1,2,3,6-tetrahydropyridin-4-yl]-7H-pyrrolo[2,3-d]pyrimidin-4-yl}-1H-indole-3-carbonitrile] | 30 nM | 
Fc1cccc(CCn2nnc3ccc(-c4ccnc5[nH]c(C6CCNCC6)cc45)cc32)c1 [Example 32, 1-[2-(3-fluorophenyl)ethyl]-6-{2-(piperidin-4-yl)-1H-pyrrolo[2,3-b]pyridin-4-yl}-1H-benzotriazole] | 51 nM | 890 nM
Fc1cccc(CCn2nnc3ccc(-c4ccnc5[nH]c(C6CCNCC6)c(Cl)c45)cc32)c1 [Example 33, 6-[3-chloro-2-(piperidin-4-yl)-1H-pyrrolo[2,3-b]pyridin-4-yl]-1-[2-(3-fluorophenyl)ethyl]-1H-benzotriazole] | 18 nM | 1100 nM
CS(=O)(=O)N1CCC(c2cc3c(-c4cnc5ccn(Cc6cccc(F)c6)c5c4)ccnc3[nH]2)CC1 [Example 34, 1-(3-fluorobenzyl)-6-{2-[1-(methylsulfonyl)piperidin-4-yl]-1H-pyrrolo[2,3-b]pyridin-4-yl}-1H-pyrrolo[3,2-b]pyridine] | 17 nM | 130 nM
N#Cc1cn(Cc2cccc(F)c2)c2nc(-c3ccnc4[nH]c(C5CCNCC5)cc34)ccc12 [Example 35, 1′-(3-fluorobenzyl)-2-(piperidin-4-yl)-1H,1′H-4,6′-bipyrrolo[2,3-b]pyridine-3′-carbonitrile] | 13 nM | 200 nM
C1=C(c2cc3c(-c4ccc5nnn(CC6CCOCC6)c5c4)ccnc3[nH]2)CCNC1 [Example 36, 1-(tetrahydro-2H-pyran-4-ylmethyl)-6-[2-(1,2,3,6-tetrahydropyridin-4-yl)-1H-pyrrolo[2,3-b]pyridin-4-yl]-1H-benzotriazole] | 59 nM | 450 nM
Fc1cncc(Cn2ccc3ncc(-c4ccnc5[nH]c(C6CCNCC6)cc45)cc32)c1 [Example 37, 1-[(5-fluoropyridin-3-yl)methyl]-6-[2-(piperidin-4-yl)-1H-pyrrolo[2,3-b]pyridin-4-yl]-1H-pyrrolo[3,2-b]pyridine] | 26 nM | 170 nM
O=C(CO)N1CC=C(c2cc3c(-c4ccc5nnn(CC6CCOCC6)c5c4)ccnc3[nH]2)CC1 [Example 38, 2-hydroxy-1-[4-{4-[1-(tetrahydro-2H-pyran-4-ylmethyl)-1H-benzotriazol-6-yl}-1H-pyrrolo[2,3-b]pyridin-2-yl]-3,6-dihydropyridin-1(2H)-yl]ethanone] | 62 nM | 440 nM
CS(=O)(=O)N1CC=C(c2cc3c(-c4ccc5nnn(CC6CCOCC6)c5c4)ccnc3[nH]2)CC1 [Example 39, 6-{2-[1-(methylsulfonyl)-1,2,3,6-tetrahydropyridin-4-yl]-1H-pyrrolo[2,3-b]pyridin-4-yl}-1-(tetrahydro-2H-pyran-4-ylmethyl)-1H-benzotriazole] | 74 nM | 200 nM
Fc1cccc(Cn2ccc3ncc(-c4ccnc5[nH]c(C6=CCNCC6)cc45)cc32)c1 [Example 40, 1-(3-fluorobenzyl)-6-[2-(1,2,3,6-tetrahydropyridin-4-yl)-1H-pyrrolo[2,3-b]pyridin-4-yl]-1H-pyrrolo[3,2-b]pyridine] | 17 nM | 53 nM
COC(=N)c1cn(Cc2cccc(F)c2)c2cc(-c3ccnc4[nH]c(C5CCNCC5)cc34)c(F)cc12 [Example 41, methyl 5-fluoro-1-(3-fluorobenzyl)-6-[2-(piperidin-4-yl)-1H-pyrrolo[2,3-b]pyridin-4-yl]-1H-indole-3-carboximidate] | 91 nM | 590 nM
